Data set [1] concerns Vero cells. The data set is described as follows: Light-induced cytotoxicity in Vero cells. It is filed as cell-based, African Green Monkey. To be noted: 0–10 µM, 465–480 nm 10 min, then 24 h in the dark. The procedure: To determine the light-induced cytotoxicity of the tested compounds, Vero cells were cultured for 24 h in 96-well plates to form a confluent monolayer, and then were treated with the tested compounds at concentrations of 0 to 10 µM. Then, the compound-treated cells were irradiated for 10 min at RT with LEDs (465–480 nm) having an approximate power density of 30 mW/cm^2 (device description in Fig. S7). As a negative control, compound-treated cells were incubated for 10 min in the dark at RT. Subsequently, both irradiated and non-irradiated cell monolayers were incubated in the dark at 37 °C for 24 h. Then, the cell culture medium was aspirated and the potential cytotoxicity of the tested perylene derivatives was determined based on cell viability using Cell Counting Kit-8 (Dojindo Molecular Technologies, Munich, Germany) according to the manufacturer's instructions.

Data set [2] can be described thus: Fluorescence quantum yield determination. The data set is classed as physicochemical. The note with it: in DMSO, relative to rhodamin B. The procedure:
The samples’ steady-state fluorescence characteristics were measured in L-format using a Chronos DFD Fluorescence spectrometer (ISS, USA) equipped with a 300 W Cermax xenon arc lamp (ISS, USA), a concave holographic grating monochromator, and a PMT detector. The required amount of each sample was diluted in DMSO and measured in a 1-cm quartz cuvette at a constant temperature of 25 °C. The resulting data were evaluated using Vinci software (ISS, USA) and correlated to the utilized optical configuration.
Absorption spectra were measured using a high-performance Specord S 600 diode spectrophotometer (Jena Analyst, DE). The required amount of each sample was diluted in DMSO, added to 1-cm quartz cuvette, and measured within the selected absorbance spectrum range, against pure DMSO as a blank, at a constant temperature of 25 °C. The results were evaluated using WinASPECT® software (Jena Analyst, DE).
Fluorescence quantum yield was determined following a previously described protocol ([Kozma et al., 2005]; [Magde et al., 1999]; [Williams et al., 1983]). The kinetics of the incorporation of compounds into liposome membrane models was determined using steady-state fluorescence spectroscopy at a constant excitation and emission wavelength, according to the corresponding sample excitation and emission maxima. We added 50 μL of LNP suspension to 0.1 mM of the analyte in PBS, and monitored the increase of fluorescence intensity over the time range from 0 to 1400s. The preparation and characterization of the liposomal suspension is described in the supporting information (Fig. S4).
1. Supplementary material and methods
1.1. Fluorescence quantum yield (QY) determination
The steady-state fluorescence and absorption data were used for quantum yield determination. QY was determined relative to a reference compound, rhodamin B. Absorbance in the range of 0.01–0.1 was used to calculate the QY. We plotted two calibration curves of integrated emission fluorescence intensity as a function of sample absorbance. […]

Data set [3] relates to CRFK cells. The data set is described as follows: Cytotoxicity assay (Cell Counting Kit-8) in CRFK cells. The data set is classed as cell-based, Felis catus. To be noted: up to 10 µM. As for the experimental part: To determine the overall cytotoxicity of the tested compounds, Vero cells were cultured for 24 h in 96-well plates to form a confluent monolayer, and then were treated with the tested compounds at concentrations of 2 and 10 µM. After 48 h of cultivation in the dark at 37 °C under 5% CO2, the cell culture medium was aspirated. The potential cytotoxicity of the tested perylene derivatives was determined based on cell viability using Cell Counting Kit-8 (Dojindo Molecular Technologies, Munich, Germany) according to the manufacturer's instructions. The cell viabilities of compound-treated Vero cells were compared with those of control DMSO-treated cells. We also used the above-described protocol to assess the cytotoxicity of the selected perylene antivirals, at concentrations ranging from 0 to 10 µM, in CaCo-2 and CRFK cells.
On the technique in general: Formazan colour is commonly taken as a measure of viable cells.

Data set [4] is described as follows: ROS generation rate / quantum yield, DPBF bleaching in methanol. The data set is classed as physicochemical. To be noted: in methanol, DPBF trap, 450–470 nm illumination, riboflavin as reference.
Data set [5] deals with SARS-CoV-2 (Wuhan strain). The data set is described as follows: Viral titer inhibition assay, SARS-CoV-2 in CaCo-2 cells. The data set is classed as cell-based. The note with it: 0–10 µM.
Data set [6] in a line: Spectrofluorometric analysis of interaction with liposomes. The note with it: 10 µM in PBS. It is filed as physicochemical.

The values below come from publication PMC10307035, “Antiviral activity of singlet oxygen-photogenerating perylene compounds against SARS-CoV-2: Interaction with the viral envelope and photodynamic virion inactivation” (Virus Research, 2023).

As for `CC(C)(C)C(=O)OCn1c(=O)c(C#Cc2ccc3c4cccc5cccc(c6cccc2c63)c54)cn(CC(=O)N(CCO)CCO)c1=O` [Compound 13], in data set [1], the “effect of blue light irradiation on cytotoxicity” value was “dramatically increased”. Besides, the fluorescence quantum yield in data set [2] is 90%. Moreover, the “tolerability by CRFK cells” value in data set [3] is recorded as “well-tolerated”. Moreover, in data set [4], the “φROS (ROS generation quantum yield)” value worked out at 19.1 ± 0.2%. The “anti-SARS-CoV-2 activity in CaCo-2 cells” value in data set [5] was “sub-micromolar”. Further, in data set [6] (EPC/Chol 70/30 mol% liposomes), the “penetration into liposomal membranes (in words)” value was “penetrated the liposomal membranes very quickly and efficiently”. The “steady-state fluorescence signal after mixing with liposomes” value in data set [6] (at 520 nm, after 1400 s) is “about 10^5 CPS”.
